Reference: US6737383B1, “Herbicidal oxadiazolidines” (priority 1999, dated 2004)

What was measured:
morningglory = assay: Test B pre/postemergence morningglory; type: in vivo, Ipomoea hederacea
Summary of the method: (§1)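 Response is a visual 0-to-10 score relative to untreated plants, where 0 means no effect and 10 means complete control, taken twelve to sixteen days after application. Treatments went onto soil at planting and onto foliage of 1- to 4-leaf plants, using a surfactant-containing non-phytotoxic solvent.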

pigweed = assay: Test B pre/postemergence pigweed; type: in vivo, Amaranthus retroflexus
Summary of the method: as §1

soybean = assay: Test B pre/postemergence soybean; type: in vivo, Glycine max
Summary of the method: as §1

cocklebur = assay: Test B pre/postemergence cocklebur; type: in vivo, Xanthium strumarium
Summary of the method: as §1

[1] = Postemergence, Rate 125 g/ha, scale 0 to 10, 0 is no effect, 10 is complete control
[2] = Postemergence, Rate 250 g/ha, scale 0 to 10, 0 is no effect, 10 is complete control
[3] = Preemergence, Rate 62 g/ha, scale 0 to 10 (0 no effect, 10 complete control)
[4] = Preemergence, Rate 250 g/ha, scale of 0 to 10 where 0 is no effect and 10 is complete control
[5] = Preemergence, Rate 500 g/ha, scale of 0 to 10 where 0 is no effect and 10 is complete control
[6] = Rate 62 g/ha, Postemergence, scale of 0 to 10 where 0 is no effect and 10 is complete control
[7] = Rate 500 g/ha, Postemergence, scale 0 to 10, 0 no effect, 10 complete control
[8] = Preemergence, Rate 125 g/ha, scale of 0 to 10 where 0 is no effect and 10 is complete control
[9] = Preemergence, Rate 250 g/ha, scale 0 to 10, 0 is no effect, 10 is complete control
[10] = Preemergence, Rate 500 g/ha, scale 0 to 10, 0 is no effect, 10 is complete control
[11] = Postemergence, Rate 500 g/ha, scale of 0 to 10 where 0 is no effect and 10 is complete control
[12] = Postemergence, Rate 250 g/ha, scale 0 to 10
[13] = Rate 62 g/ha, Postemergence, scale 0 to 10 (0 no effect, 10 complete control)
[14] = Rate 125 g/ha, Postemergence, scale 0 to 10, 0 is no effect, 10 is complete control
[15] = Preemergence, Rate 62 g/ha, scale of 0 to 10 where 0 is no effect and 10 is complete control

With CC(C)N(C(=O)n1oc(=O)n(N2CCOCC2)c1=O)c1ccc(F)cc1 [Compound 385] the “Plant response rating, Morningglory” value (morningglory; [1]) was 1, the “Plant response rating, Morningglory” value (morningglory; [2]) was 2 and the “Plant response rating, Morningglory” value (morningglory; [3]) was 0. For the same molecule, the “Morningglory plant response rating (0 to 10 scale)” value (morningglory; Preemergence, Rate 125 g/ha) was 0, the “Morningglory plant response rating” value (morningglory; [4]) was 0 and the “Morningglory plant response rating” value (morningglory; [5]) was 2. For the same molecule, the “Morningglory plant response rating” value (morningglory; [6]) was 1, the “Plant response rating, Morningglory” value (morningglory; [7]) was 5 and the “Plant response rating, Redroot pigweed” value (pigweed; [1]) was 0. The “Plant response rating, Redroot pigweed” value (pigweed; [2]) was 0, the “Plant response rating, Redroot pigweed” value (pigweed; [3]) was 2 and the “Redroot pigweed plant response rating (0 to 10 scale)” value (pigweed; Preemergence, Rate 125 g/ha) was 7. For the same molecule, the “Redroot pigweed plant response rating” value (pigweed; [4]) was 7, the “Redroot pigweed plant response rating” value (pigweed; [5]) was 10 and the “Redroot pigweed plant response rating” value (pigweed; [6]) was 0. For the same molecule, the “Plant response rating, Redroot pigweed” value (pigweed; [7]) was 0, the “Plant response rating, Soybean” value (soybean; [1]) was 2 and the “Plant response rating, Soybean” value (soybean; [2]) was 2. The “Plant response rating, Soybean” value (soybean; [3]) was 0, the “Soybean plant response rating (0 to 10 scale)” value (soybean; Preemergence, Rate 125 g/ha) was 0 and the “Soybean plant response rating” value (soybean; [4]) was 0. The “Soybean plant response rating” value (soybean; [5]) was 0, the “Soybean plant response rating” value (soybean; [6]) was 2 and the “Plant response rating, Soybean” value (soybean; [7]) was 2. For the same molecule, the “Plant response rating, Cocklebur” value (cocklebur; [1]) was 0, the “Plant response rating, Cocklebur” value (cocklebur; [2]) was 0 and the “Plant response rating, Cocklebur” value (cocklebur; [3]) was 0. The “Cocklebur plant response rating (0 to 10 scale)” value (cocklebur; Preemergence, Rate 125 g/ha) was 0, the “Cocklebur plant response rating” value (cocklebur; [4]) was 0 and the “Cocklebur plant response rating” value (cocklebur; [5]) was 0. The “Cocklebur plant response rating” value (cocklebur; [6]) was 0 and the “Plant response rating, Cocklebur” value (cocklebur; [7]) was 0.
For CC(C)N(C(=O)n1oc(=O)n(CC#N)c1=O)c1ccc(F)cc1 [Compound 395], the “Plant response rating, Morningglory” value (morningglory; [2]) was 0, the “Plant response rating, Morningglory” value (morningglory; [3]) was 0 and the “Plant response rating, Morningglory” value (morningglory; [8]) was 0. For the same molecule, the “Morningglory plant response rating” value (morningglory; [9]) was 0, the “Morningglory plant response rating” value (morningglory; [10]) was 0 and the “Morningglory plant response rating” value (morningglory; [6]) was 0. The “Plant response rating, Redroot pigweed” value (pigweed; [2]) was 0, the “Redroot pigweed plant response rating” value (pigweed; [11]) was 0 and the “Plant response rating, Redroot pigweed” value (pigweed; [3]) was 0. For the same molecule, the “Plant response rating, Redroot pigweed” value (pigweed; [8]) was 0, the “Redroot pigweed plant response rating” value (pigweed; [9]) was 0 and the “Redroot pigweed plant response rating” value (pigweed; [10]) was 0. For the same molecule, the “Redroot pigweed plant response rating” value (pigweed; [6]) was 0, the “Plant response rating, Soybean” value (soybean; [2]) was 1 and the “Soybean plant response rating” value (soybean; [11]) was 1. For the same molecule, the “Plant response rating, Soybean” value (soybean; [3]) was 0, the “Plant response rating, Soybean” value (soybean; [8]) was 0 and the “Soybean plant response rating” value (soybean; [9]) was 0. For the same molecule, the “Soybean plant response rating” value (soybean; [10]) was 0, the “Soybean plant response rating” value (soybean; [6]) was 0 and the “Plant response rating, Cocklebur” value (cocklebur; [1]) was 0. For the same molecule, the “Plant response rating, Cocklebur” value (cocklebur; [2]) was 0, the “Cocklebur plant response rating” value (cocklebur; [11]) was 0 and the “Plant response rating, Cocklebur” value (cocklebur; [3]) was 0. For the same molecule, the “Plant response rating, Cocklebur” value (cocklebur; [8]) was 0, the “Cocklebur plant response rating” value (cocklebur; [9]) was 0 and the “Cocklebur plant response rating” value (cocklebur; [10]) was 0. For the same molecule, the “Cocklebur plant response rating” value (cocklebur; [6]) was 0.
CC(C)N(C(=O)n1oc(=O)n(CC2(C)COC2)c1=O)c1ccccc1 [Compound 420] was tested, and the “Plant response rating, Morningglory” value (morningglory; [2]) was 4, the “Morningglory plant response rating” value (morningglory; [11]) was 10 and the “Plant response rating, Morningglory” value (morningglory; [3]) was 0. The “Plant response rating, Morningglory” value (morningglory; [8]) was 0, the “Morningglory plant response rating” value (morningglory; [9]) was 2 and the “Morningglory plant response rating” value (morningglory; [10]) was 8. For the same molecule, the “Plant response rating, Redroot pigweed” value (pigweed; [2]) was 0, the “Redroot pigweed plant response rating” value (pigweed; [11]) was 0 and the “Plant response rating, Redroot pigweed” value (pigweed; [3]) was 0. For the same molecule, the “Plant response rating, Redroot pigweed” value (pigweed; [8]) was 2, the “Redroot pigweed plant response rating” value (pigweed; [9]) was 2 and the “Redroot pigweed plant response rating” value (pigweed; [10]) was 5. The “Plant response rating, Soybean” value (soybean; [2]) was 3, the “Soybean plant response rating” value (soybean; [11]) was 4 and the “Plant response rating, Soybean” value (soybean; [3]) was 0. For the same molecule, the “Plant response rating, Soybean” value (soybean; [8]) was 0, the “Soybean plant response rating” value (soybean; [9]) was 0 and the “Soybean plant response rating” value (soybean; [10]) was 0. The “Plant response rating, Cocklebur” value (cocklebur; [1]) was 0, the “Plant response rating, Cocklebur” value (cocklebur; [2]) was 0 and the “Cocklebur plant response rating” value (cocklebur; [11]) was 0. The “Plant response rating, Cocklebur” value (cocklebur; [3]) was 0, the “Plant response rating, Cocklebur” value (cocklebur; [8]) was 0 and the “Cocklebur plant response rating” value (cocklebur; [9]) was 0. The “Cocklebur plant response rating” value (cocklebur; [10]) was 0 and the “Cocklebur plant response rating” value (cocklebur; [6]) was 0.
CC(C)N(C(=O)n1oc(=O)n(C(C)C#N)c1=O)c1ccccc1 (centres unmarked) [Compound 435] was tested, and the “Morningglory plant response rating” value (morningglory; [12]) was 6, the “Morningglory plant response rating” value (morningglory; [11]) was 9 and the “Plant response rating, Morningglory” value (morningglory; [3]) was 0. The “Plant response rating, Morningglory” value (morningglory; [8]) was 0, the “Morningglory plant response rating” value (morningglory; [9]) was 0 and the “Morningglory plant response rating” value (morningglory; [10]) was 0. For the same molecule, the “Morningglory plant response rating” value (morningglory; [13]) was 1, the “Morningglory plant response rating” value (morningglory; [14]) was 2 and the “Redroot pigweed plant response rating” value (pigweed; [12]) was 2. For the same molecule, the “Redroot pigweed plant response rating” value (pigweed; [11]) was 2, the “Plant response rating, Redroot pigweed” value (pigweed; [3]) was 2 and the “Plant response rating, Redroot pigweed” value (pigweed; [8]) was 2. For the same molecule, the “Redroot pigweed plant response rating” value (pigweed; [9]) was 4, the “Redroot pigweed plant response rating” value (pigweed; [10]) was 8 and the “Redroot pigweed plant response rating” value (pigweed; [13]) was 0. The “Redroot pigweed plant response rating” value (pigweed; [14]) was 0, the “Soybean plant response rating” value (soybean; [12]) was 1 and the “Soybean plant response rating” value (soybean; [11]) was 3. For the same molecule, the “Plant response rating, Soybean” value (soybean; [3]) was 0, the “Plant response rating, Soybean” value (soybean; [8]) was 0 and the “Soybean plant response rating” value (soybean; [9]) was 0. The “Soybean plant response rating” value (soybean; [10]) was 0, the “Soybean plant response rating” value (soybean; [13]) was 0 and the “Soybean plant response rating” value (soybean; [14]) was 1. The “Cocklebur plant response rating” value (cocklebur; [12]) was 0, the “Cocklebur plant response rating” value (cocklebur; [11]) was 0 and the “Plant response rating, Cocklebur” value (cocklebur; [3]) was 0. For the same molecule, the “Plant response rating, Cocklebur” value (cocklebur; [8]) was 0, the “Cocklebur plant response rating” value (cocklebur; [9]) was 0 and the “Cocklebur plant response rating” value (cocklebur; [10]) was 0. The “Cocklebur plant response rating” value (cocklebur; [13]) was 0 and the “Cocklebur plant response rating” value (cocklebur; [14]) was 0.
For CC(C)N(C(=O)n1oc(=O)n(CCC#N)c1=O)c1ccc(Cl)cc1 [Compound 444], the “Morningglory plant response rating” value (morningglory; [12]) was 1, the “Morningglory plant response rating” value (morningglory; [11]) was 3 and the “Plant response rating, Morningglory” value (morningglory; [15]) was 0. For the same molecule, the “Plant response rating, Morningglory” value (morningglory; [8]) was 0, the “Morningglory plant response rating” value (morningglory; [9]) was 0 and the “Morningglory plant response rating” value (morningglory; [10]) was 0. The “Morningglory plant response rating” value (morningglory; [13]) was 0, the “Morningglory plant response rating” value (morningglory; [14]) was 0 and the “Redroot pigweed plant response rating” value (pigweed; [11]) was 2. The “Plant response rating, Redroot pigweed” value (pigweed; [15]) was 10, the “Plant response rating, Redroot pigweed” value (pigweed; [8]) was 10 and the “Redroot pigweed plant response rating” value (pigweed; [9]) was 10. For the same molecule, the “Redroot pigweed plant response rating” value (pigweed; [10]) was 10, the “Redroot pigweed plant response rating” value (pigweed; [13]) was 0 and the “Redroot pigweed plant response rating” value (pigweed; [14]) was 2. The “Soybean plant response rating” value (soybean; [12]) was 2, the “Soybean plant response rating” value (soybean; [11]) was 2 and the “Plant response rating, Soybean” value (soybean; [15]) was 0. For the same molecule, the “Plant response rating, Soybean” value (soybean; [8]) was 0, the “Soybean plant response rating” value (soybean; [9]) was 2 and the “Soybean plant response rating” value (soybean; [10]) was 3. The “Soybean plant response rating” value (soybean; [13]) was 1, the “Soybean plant response rating” value (soybean; [14]) was 1 and the “Cocklebur plant response rating” value (cocklebur; [12]) was 0. For the same molecule, the “Cocklebur plant response rating” value (cocklebur; [11]) was 0, the “Plant response rating, Cocklebur” value (cocklebur; [15]) was 0 and the “Plant response rating, Cocklebur” value (cocklebur; [8]) was 0. For the same molecule, the “Cocklebur plant response rating” value (cocklebur; [9]) was 0, the “Cocklebur plant response rating” value (cocklebur; [10]) was 0 and the “Cocklebur plant response rating” value (cocklebur; [13]) was 0. For the same molecule, the “Cocklebur plant response rating” value (cocklebur; [14]) was 0.
